Key:
ATeam 1.03 = target: T1, ATeam 1.03 (Bacillus subtilis, UniProt P37812); assay: FRET sensor titration; format: binding; conditions: read-out: C50
T1 construct: gene atpC; epsilon subunit between mseCFP and Venus

ChemoG1 (eGFP-HT7) = target: T2, ChemoG1 (eGFP-HT7) (Rhodococcus sp. (in: high G+C Gram-positive bacteria), UniProt P0A3G3, L47V/S58T/D78G/Y87F/L88M/C128F/A155T/E160K/A167V/A172T/K175M/C176G/K195N/A224E/N227D/E257K/T264A/H272N/Y273L/P291S/A292T); assay: X-ray crystallography, […] Å; format: binding; conditions: covalent; HaloTag labelling with chloroalkane; fluorophore at eGFP-HT7 interface
T2 construct: gene dhaA; eGFP fused directly to N terminus of HaloTag7; His10 removed with TEV protease; E. coli

[1] = target: HaloTag7 (HT7) E143R E147R L271E labeled with SiR, as the C-terminal part of ChemoG5 (construct for fluorescence spectroscopy); assay: FRET or BRET; intramolecular FRET of the purified eGFP–HT7 fusion (both partners on one chain), 200 nM protein labeled with 400 nM fluorophore–CA substrate, activity buffer (50 mM HEPES, 50 mM NaCl, pH 7.3) with 0.5 mg/ml BSA, 37 °C, plate reader

T1 sequence (P37812 whole entry): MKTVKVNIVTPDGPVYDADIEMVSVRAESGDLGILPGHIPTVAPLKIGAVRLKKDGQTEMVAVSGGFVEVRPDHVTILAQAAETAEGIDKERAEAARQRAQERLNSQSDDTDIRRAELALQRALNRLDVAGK

Nc1ncnc2c1ncn2[C@@H]1O[C@H](COP(=O)(O)OP(=O)(O)OP(=O)(O)O)[C@@H](O)[C@H]1O [ATP]
EC50 (ATeam 1.03): 1.8 mM

CN(C)c1ccc2c(-c3cc(C(=O)NCCOCCOCCCCCCCl)ccc3C(=O)[O-])c3ccc(=[N+](C)C)cc-3oc2c1 [TMR-CA]
X-ray crystallography, 1.8 Å (ChemoG1 (eGFP-HT7)): X-ray structure of ChemoG1 labeled with the fluorophore tetramethylrhodamine

eGFP A206K T225R, as the N-terminal part of ChemoG5 (construct for fluorescence spectroscopy) (from UniProt P42212 3-238) (domain or fragment)
FRET efficiency [1]: 95.8%
